Measurements: US20210308173A1, “PHARMACEUTICAL COMPOSITION COMPRISING CYCLODEXTRIN COMPLEXES OF ANETHOLE TRITHIONE OR DERIVATIVES THEREOF” (priority 2018, published 2021)
Values after ≈ are worked out from the molar mass of the structure shown.

Experiment: Cyclodextrin solubilization screening of AOL
Type: physicochemical
Conditions: for CD/AOL molar ratio RM / CD/AOL weight ratio Rm: 25° C.; for solubility at 3 h / solubility at 20 h: 25 °C, thermodynamic from solid
Method: This assay evaluated the potential of different cyclodextrins to solubilize AOL. A solubilization screening is carried out with the four cyclodextrins (CD) selected from α-CD, γ-CD, HP-β-CD and SBE-β-CD.
Aqueous solutions containing 100 mM of cyclodextrin are prepared in pure water. An excess of AOL (approximately 5 mg/mL) is suspended in 2 mL of each of these cyclodextrin solutions. Each duplicate sample is shaken at 25° C. for 3 hours and 20 hours (vortex to 1400 rpm). Each sample is centrifuged (12,500 g) then filtered through a 0.45 μm membrane. The solubility of the AOL is quantified by HPLC as previously described (Example 2).

SMILES: COc1ccc(-c2cc(=S)ss2)cc1 [AOL, 5-(4-methoxyphenyl)-3H-1,2-dithiole-3-thione]
- CD/AOL molar ratio RM (HP-β-CD 100 mM, stirring 3 h): 218
- CD/AOL weight ratio Rm (HP-β-CD 100 mM, stirring 3 h): 1270
- CD/AOL molar ratio RM (HP-β-CD 100 mM, stirring 20 h): 252
- CD/AOL weight ratio Rm (HP-β-CD 100 mM, stirring 20 h): 1465
- CD/AOL molar ratio RM (SBE-β-CD 100 mM, stirring 3 h): 169
- CD/AOL weight ratio Rm (SBE-β-CD 100 mM, stirring 3 h): 1575
- CD/AOL molar ratio RM (SBE-β-CD 100 mM, stirring 20 h): 150
- CD/AOL weight ratio Rm (SBE-β-CD 100 mM, stirring 20 h): 1395
- solubility at 3 h (aqueous cyclodextrin solution, aqueous with cosolvent or surfactant or cyclodextrin, HP-β-CD 100 mM, stirring 3 h): 110 µg/mL (≈ 458 µM)
- solubility at 20 h (aqueous cyclodextrin solution, aqueous with cosolvent or surfactant or cyclodextrin, HP-β-CD 100 mM, stirring 20 h): 95.5 µg/mL (≈ 397 µM)
- solubility at 3 h (aqueous cyclodextrin solution, aqueous with cosolvent or surfactant or cyclodextrin, SBE-β-CD 100 mM, stirring 3 h): 142 µg/mL (≈ 592 µM)
- solubility at 20 h (aqueous cyclodextrin solution, aqueous with cosolvent or surfactant or cyclodextrin, SBE-β-CD 100 mM, stirring 20 h): 161 µg/mL (≈ 669 µM)
- solubility at 3 h (aqueous cyclodextrin solution, aqueous with cosolvent or surfactant or cyclodextrin, α-CD 100 mM, stirring 3 h): 8.83 µg/mL (≈ 36.7 µM)
- solubility at 20 h (aqueous cyclodextrin solution, aqueous with cosolvent or surfactant or cyclodextrin, α-CD 100 mM, stirring 20 h): 13.5 µg/mL (≈ 56.2 µM)
- solubility at 3 h (aqueous cyclodextrin solution, aqueous with cosolvent or surfactant or cyclodextrin, γ-CD 100 mM, stirring 3 h): 2.86 µg/mL (≈ 11.9 µM)
- solubility at 20 h (aqueous cyclodextrin solution, aqueous with cosolvent or surfactant or cyclodextrin, γ-CD 100 mM, stirring 20 h): 1.67 µg/mL (≈ 6.95 µM)
- solubility at 3 h (water, None-H2O, stirring 3 h): 0.22 µg/mL (≈ 0.915 µM)
- solubility at 20 h (water, None-H2O, stirring 20 h): 0.16 µg/mL (≈ 0.666 µM)
- CD/AOL molar ratio RM (α-CD 100 mM, stirring 3 h): 2721
- CD/AOL weight ratio Rm (α-CD 100 mM, stirring 3 h): 11010
- CD/AOL molar ratio RM (α-CD 100 mM, stirring 20 h): 1779
- CD/AOL weight ratio Rm (α-CD 100 mM, stirring 20 h): 7198
- CD/AOL molar ratio RM (γ-CD 100 mM, stirring 3 h): 8399
- CD/AOL weight ratio Rm (γ-CD 100 mM, stirring 3 h): 45316
- CD/AOL molar ratio RM (γ-CD 100 mM, stirring 20 h): 14405
- CD/AOL weight ratio Rm (γ-CD 100 mM, stirring 20 h): 77723
